{"source": "patent EP3009422A1", "about": "“Photo-switchable sulfonylureas and their uses” (Ludwig-Maximilians-Universität München, priority 2014, dated 2016)", "key": {"KATP channels": {"target": "T1, KATP channels (Rattus norvegicus, UniProt Q09429)", "T1 construct": "expressed in transfected cells; host or cells: HEK293t (Leibniz-Institut DSMZ: #305)", "T1 sequence (Q09429 whole entry)": "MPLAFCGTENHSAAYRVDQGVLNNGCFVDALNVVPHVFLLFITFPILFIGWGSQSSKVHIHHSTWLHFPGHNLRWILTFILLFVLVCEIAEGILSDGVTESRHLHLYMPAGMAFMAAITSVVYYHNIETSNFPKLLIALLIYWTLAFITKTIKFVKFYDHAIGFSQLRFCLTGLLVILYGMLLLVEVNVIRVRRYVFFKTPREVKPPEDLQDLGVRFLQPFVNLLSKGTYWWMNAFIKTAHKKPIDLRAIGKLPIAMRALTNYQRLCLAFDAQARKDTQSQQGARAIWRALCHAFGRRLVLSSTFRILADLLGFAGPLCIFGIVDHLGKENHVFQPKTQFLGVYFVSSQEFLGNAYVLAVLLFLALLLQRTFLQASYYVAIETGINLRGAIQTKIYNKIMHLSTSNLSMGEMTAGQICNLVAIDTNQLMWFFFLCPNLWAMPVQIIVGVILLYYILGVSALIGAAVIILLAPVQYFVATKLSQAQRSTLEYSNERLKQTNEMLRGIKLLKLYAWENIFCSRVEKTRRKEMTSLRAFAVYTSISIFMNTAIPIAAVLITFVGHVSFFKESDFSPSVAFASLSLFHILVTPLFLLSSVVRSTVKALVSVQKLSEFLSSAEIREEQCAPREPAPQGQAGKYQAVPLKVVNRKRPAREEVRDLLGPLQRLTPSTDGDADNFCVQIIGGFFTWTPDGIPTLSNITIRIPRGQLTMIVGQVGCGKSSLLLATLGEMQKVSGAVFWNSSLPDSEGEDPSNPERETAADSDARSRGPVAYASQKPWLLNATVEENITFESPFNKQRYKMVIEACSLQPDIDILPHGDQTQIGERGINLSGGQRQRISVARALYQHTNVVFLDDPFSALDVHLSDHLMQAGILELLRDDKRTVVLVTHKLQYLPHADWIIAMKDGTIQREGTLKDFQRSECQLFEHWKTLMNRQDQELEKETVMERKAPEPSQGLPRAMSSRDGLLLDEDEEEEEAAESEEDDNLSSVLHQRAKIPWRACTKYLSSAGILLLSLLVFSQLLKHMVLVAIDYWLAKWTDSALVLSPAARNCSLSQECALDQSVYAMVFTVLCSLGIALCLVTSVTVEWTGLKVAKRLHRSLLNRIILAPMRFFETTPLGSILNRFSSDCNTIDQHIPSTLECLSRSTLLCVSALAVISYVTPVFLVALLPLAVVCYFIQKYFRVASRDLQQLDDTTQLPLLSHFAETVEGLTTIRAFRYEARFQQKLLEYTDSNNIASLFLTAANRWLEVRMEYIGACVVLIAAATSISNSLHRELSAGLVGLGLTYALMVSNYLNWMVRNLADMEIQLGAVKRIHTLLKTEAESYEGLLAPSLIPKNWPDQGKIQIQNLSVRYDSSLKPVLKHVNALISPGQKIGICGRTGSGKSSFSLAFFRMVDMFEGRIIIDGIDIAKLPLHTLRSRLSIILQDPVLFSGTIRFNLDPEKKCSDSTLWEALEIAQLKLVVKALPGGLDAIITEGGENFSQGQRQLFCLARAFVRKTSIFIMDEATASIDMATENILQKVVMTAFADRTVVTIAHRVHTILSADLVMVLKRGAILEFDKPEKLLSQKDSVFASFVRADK", "T1 sequence (Q61743 whole entry partner)": "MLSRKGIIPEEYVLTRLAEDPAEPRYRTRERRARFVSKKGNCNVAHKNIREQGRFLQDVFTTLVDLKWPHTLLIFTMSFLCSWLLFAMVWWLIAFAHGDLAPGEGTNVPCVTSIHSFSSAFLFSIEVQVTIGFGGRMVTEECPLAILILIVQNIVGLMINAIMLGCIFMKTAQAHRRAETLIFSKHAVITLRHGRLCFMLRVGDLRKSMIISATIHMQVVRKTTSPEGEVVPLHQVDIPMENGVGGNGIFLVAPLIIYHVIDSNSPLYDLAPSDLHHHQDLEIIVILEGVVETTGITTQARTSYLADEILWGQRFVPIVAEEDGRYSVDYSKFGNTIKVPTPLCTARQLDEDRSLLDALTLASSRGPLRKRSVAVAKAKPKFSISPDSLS", "test": "Whole cell patch clamp of HEK293t cells transfected with Kir6.2 and SUR1", "assay_type": "cell-based", "conditions": "for Difference (%) in current change between first and last switch / ΔI [pA] first switch / ΔI [pA] last switch: 400 nm; for reversal potential: n = 5 recordings; for % block: versus 500 µM tolbutamide in the same experiment, n = 3", "method": "HEK293t cells (obtained from Leibniz-Institut DSMZ: #305) were incubated in Dulbecco's Modified Eagle Medium (DMEM) + 10% FBS and used for electrophysiological recordings 24-48 hrs following Lipofectamine transfection with plasmids encoding Kir6.2 (Genbank D50581), rat SUR1 (Genbank L40624) and GFP. Whole cell patch clamp experiments were performed using a standard electrophysiology setup equipped with a HEKA Patch Clamp EPC10 USB amplifier and PatchMaster software (HEKA Electronik). Micropipettes were generated from \"Science Products GB200-F-8P with filament\" pipettes using a vertical puller. Resistance varied between 5-7 MΩ. Bath solution contained in mM: 3 KCl, 118 NaCl, 25 NaHCO3, 2 CaCl2, 1 MgCl2, 10 HEPES (NaOH to pH 7.4). Pipette solution contained in mM: 90 K-gluconate, 10 NaCl, 10 KCl, 1 MgCl2, 10 EGTA, 60 HEPES (KOH to pH 7.3), and the holding potential was -60 mV. Illumination during electrophysiology and UV/Vis experiments was provided by a TILL Photonics Polychrome 5000 monochromator."}, "human islets": {"tested_on": "human islets", "test": "Calcium imaging in isolated human islets of Langerhans", "assay_type": "cell-based", "conditions": "human islets from three donors, 440 nm", "method": "Human islets were isolated from deceased heart-beating donors (n = 3) at transplantation facilities in Pisa and Edmonton with the relevant national and local ethical permissions, including consent from next of kin where required, and cultured in RPMI supplemented with 5.5 mM D-glucose, 10% foetal calf serum (FCS), 100 U penicillin, 100 µg streptomycin and 0.25/µl fungizone (37 °C, 5% CO2). All studies involving human tissue were approved by the National Research Ethics Committee (NRES) London (Fulham), REC # 07/H0711/114.\nIslets were loaded for 30-45 min in fluo2-AM (10 µM) or for 2-5 min with X-Rhod 1 (5 µM) diluted with a mixture of DMSO (0.01%, wt/vol) and pluronic acid (0.001%, wt/vol; all Invitrogen) in a bicarbonate buffer containing in mM: 120 NaCl, 4.8 KCl, 1.25 NaH2PO4, 24 NaHCO3, 2.5 CaCl2, 1.2 MgCl2 and 5 D-glucose. fMCI was performed using a Zeiss Axiovert M200 fitted with a Nipkow spinning-disk head (Yokogawa CSU-10) and a 10x/0.3NA objective adjusted for chromatic aberration (EC Plan-Neofluar, Zeiss). Pulsed excitation (frequency = 0.5 Hz; exposure = 263 ms) was delivered at 491 nm and emitted signals recorded at 500-550 nm with a back-illuminated 16-bit EM-CCD camera (ImageEM 9100-13; Hamamatsu). During recording, islets were maintained at 35-36 °C in the presence of 50 µM JB253 using a custom-manufactured perfusion and heating system (Digital Pixel). Drugs were introduced through the perfusion system at the indicated time points and concentrations. Violet light was delivered by a 405 ± 5 nm laser coupled to the side port of the microscope and configured to fill the back of the objective with light using an Optospot (Cairn Research). Blue light was delivered using 440 ± 5 nm and 491 ± 5 nm diode lasers controlled by a laser merge module (Spectral Applied Research) to allow simultaneous exposure and acquisition. […] Signals were normalized using F/Fmin where F is fluorescence at a given timepoint and Fmin is minimum fluorescence."}, "Epac2A": {"tested_on": "Epac2A", "test": "Epac2-camps FRET imaging in HEK293t cells", "assay_type": "cell-based", "conditions": "HEK293t cells expressing full length Epac2-camps; JB253 as cis-JB253 (excitation 440 nm)", "method": "For EPAC2 imaging, HEK293t were transfected with the full length construct for […] containing the cAMP and sulfonylurea binding domains (obtained from Prof. […] Excitation was delivered at 440 nm and emitted signals captured using […] filters. FRET was calculated as the ratio of Cerulean (CFP):Venus (YFP) fluorescence. Signals were normalized using R/R0 where R is the ratio at a given timepoint and R0 is the minimum ratio."}, "isolated murine islets": {"tested_on": "isolated murine islets", "test": "Insulin secretion from isolated islets (static incubation, radioimmunoassay)", "assay_type": "cell-based, mouse", "method": "Insulin secretion was measured from 6 islets per well, incubated at 37 °C for 30 min in 0.5 ml of Krebs-HEPES-bicarbonate (KHB) solution (containing in mM: 130 NaCl, 3.6 KCl, 1.5 CaCl2, 0.5 MgSO4, 0.5 NaH2PO4, 2 NaHCO3, 10 HEPES, and 0.1 % (wt/vol) BSA, pH 7.4) containing the indicated glucose concentration and tolbutamide (100 µM), glimeperide (50 µM), diazoxide (250 µM) and JB253 (50 µM). Illumination (λ = 405 ± 20 nm and 485 ± 6 nm) was performed using a Fluostar Optima microplate reader (BMG Labtech) set to deliver 30 s of light every 2 min to the designated wells. Insulin concentrations were determined in duplicate using specific radioimmunoassay (EMD Millipore)."}, "[1]": {"conditions": "four dark/400 nm cycles, single cell, ± SEM"}, "[2]": {"conditions": "λ 400 nm, 50 µM JB253, ± SD, n = 3 recordings"}, "[3]": {"conditions": "λ 420 nm, 50 µM JB253, ± SD, n = 3 recordings"}, "[4]": {"conditions": "λ 440 nm, 50 µM JB253, ± SD, n = 3 recordings"}, "[5]": {"conditions": "λ 460 nm, 50 µM JB253, ± SD, n = 3 recordings"}, "[6]": {"conditions": "λ 480 nm, 50 µM JB253, ± SD, n = 3 recordings"}, "[7]": {"conditions": "λ 500 nm, 50 µM JB253, ± SD, n = 3 recordings"}}, "data": [{"smiles": "CCN(CC)c1ccc(/N=N/c2ccc(S(=O)(=O)NC(=O)NC3CCCCC3)cc2)cc1", "note": "[JB253, (E)-N-(cyclohexylcarbamoyl)-4-((4-(diethylamino)phenyl)diazenyl)benzenesulfonamide]", "values": [{"measurement": "Difference (%) in current change between first and last switch", "setting": "KATP channels; experiment 1, 12 cycles", "value": 34.4, "unit": "%"}, {"measurement": "ΔI [pA] first switch", "setting": "KATP channels; experiment 1, 12 cycles", "value": 136.5, "unit": "pA"}, {"measurement": "ΔI [pA] last switch", "setting": "KATP channels; experiment 1, 12 cycles", "value": 89.5, "unit": "pA"}, {"measurement": "Difference (%) in current change between first and last switch", "setting": "KATP channels; experiment 2, 9 cycles", "value": 3.4, "unit": "%"}, {"measurement": "ΔI [pA] first switch", "setting": "KATP channels; experiment 2, 9 cycles", "value": 438.8, "unit": "pA"}, {"measurement": "ΔI [pA] last switch", "setting": "KATP channels; experiment 2, 9 cycles", "value": 423.8, "unit": "pA"}, {"measurement": "Difference (%) in current change between first and last switch", "setting": "KATP channels; experiment 3, 5 cycles", "value": 19.5, "unit": "%"}, {"measurement": "ΔI [pA] first switch", "setting": "KATP channels; experiment 3, 5 cycles", "value": 200.0, "unit": "pA"}, {"measurement": "ΔI [pA] last switch", "setting": "KATP channels; experiment 3, 5 cycles", "value": 161.0, "unit": "pA"}, {"measurement": "Difference (%) in current change between first and last switch", "setting": "KATP channels; experiment 4, 4 cycles", "value": 2.1, "unit": "%"}, {"measurement": "ΔI [pA] first switch", "setting": "KATP channels; experiment 4, 4 cycles", "value": 521, "unit": "pA"}, {"measurement": "ΔI [pA] last switch", "setting": "KATP channels; experiment 4, 4 cycles", "value": 510, "unit": "pA"}, {"measurement": "wavelength of maximal photoblock of KATP channels", "setting": "KATP channels; HEK293t Kir6.2/SUR1", "value": 460, "unit": "nm"}, {"measurement": "photoswitching of K^+ currents at wavelengths > 560 nm", "setting": "KATP channels; HEK293t Kir6.2/SUR1, holding potential -60 mV, n = 3 recordings", "value": "unable to photoswitch"}, {"measurement": "τon", "setting": "KATP channels; block upon exposure to 400 nm", "value": 400, "unit": "ms"}, {"measurement": "K^+ current amplitude", "setting": "KATP channels; dark state, 50 µM JB253, a fraction of the effect of 500 µM tolbutamide", "value": "partly reduced"}, {"measurement": "reversal potential", "setting": "KATP channels; dark, ± SEM", "value": "-90.0 ± 1.8", "unit": "mV"}, {"measurement": "ΔI", "setting": "KATP channels; [1]", "value": "504.8±6.9", "unit": "pA"}, {"measurement": "τoff", "setting": "KATP channels; [1]", "value": "1472 ± 75", "unit": "ms"}, {"measurement": "τon", "setting": "KATP channels; [1]", "value": "477 ± 26", "unit": "ms"}, {"measurement": "reversal potential", "setting": "KATP channels; illuminated, ± SEM", "value": "-87.8 ± 1.6", "unit": "mV"}, {"measurement": "block relative to that recorded using 500 µM tolbutamide", "setting": "KATP channels; illumination with wavelengths between 400-500 nm, 50 µM JB253", "value": "45-72%"}, {"measurement": "difference in ΔI [pA] between first and last switch", "setting": "KATP channels; repeated dark/400 nm cycles, mean of all experiments", "value": "14.9 ± 7.6", "unit": "%"}, {"measurement": "τoff", "setting": "KATP channels; thermal relaxation after light source shut off (400 nm)", "value": 1500, "unit": "ms"}, {"measurement": "ΔI", "setting": "KATP channels; λ 400 nm, 50 µM JB253, single representative experiment", "value": 216, "unit": "pA"}, {"measurement": "% block", "setting": "KATP channels; λ 400 nm, 50 µM JB253, ± SD", "value": "44.0±29.6", "unit": "%"}, {"measurement": "τoff", "setting": "KATP channels; [2]", "value": "2758 ± 745", "unit": "ms"}, {"measurement": "τon", "setting": "KATP channels; [2]", "value": "1176 ± 385", "unit": "ms"}, {"measurement": "ΔI", "setting": "KATP channels; λ 420 nm, 50 µM JB253, single representative experiment", "value": 492, "unit": "pA"}, {"measurement": "% block", "setting": "KATP channels; λ 420 nm, 50 µM JB253, ± SD", "value": "69.4±51.1", "unit": "%"}, {"measurement": "τoff", "setting": "KATP channels; [3]", "value": "2209 ± 482", "unit": "ms"}, {"measurement": "τon", "setting": "KATP channels; [3]", "value": "1309 ± 438", "unit": "ms"}, {"measurement": "ΔI", "setting": "KATP channels; λ 440 nm, 50 µM JB253, single representative experiment", "value": 440, "unit": "pA"}, {"measurement": "% block", "setting": "KATP channels; λ 440 nm, 50 µM JB253, ± SD", "value": "70.0±44.3", "unit": "%"}, {"measurement": "τoff", "setting": "KATP channels; [4]", "value": "2295 ± 397", "unit": "ms"}, {"measurement": "τon", "setting": "KATP channels; [4]", "value": "1246 ± 421", "unit": "ms"}, {"measurement": "ΔI", "setting": "KATP channels; λ 460 nm, 50 µM JB253, single representative experiment", "value": 481, "unit": "pA"}, {"measurement": "% block", "setting": "KATP channels; λ 460 nm, 50 µM JB253, ± SD", "value": "72.8±48.1", "unit": "%"}, {"measurement": "τoff", "setting": "KATP channels; [5]", "value": "1940 ± 322", "unit": "ms"}, {"measurement": "τon", "setting": "KATP channels; [5]", "value": "1181 ± 447", "unit": "ms"}, {"measurement": "ΔI", "setting": "KATP channels; λ 480 nm, 50 µM JB253, single representative experiment", "value": 487, "unit": "pA"}, {"measurement": "% block", "setting": "KATP channels; λ 480 nm, 50 µM JB253, ± SD", "value": "72.4±49.0", "unit": "%"}, {"measurement": "τoff", "setting": "KATP channels; [6]", "value": "2183 ± 422", "unit": "ms"}, {"measurement": "τon", "setting": "KATP channels; [6]", "value": "1163 ± 434", "unit": "ms"}, {"measurement": "ΔI", "setting": "KATP channels; λ 500 nm, 50 µM JB253, single representative experiment", "value": 482, "unit": "pA"}, {"measurement": "% block", "setting": "KATP channels; λ 500 nm, 50 µM JB253, ± SD", "value": "70.2±49.5", "unit": "%"}, {"measurement": "τoff", "setting": "KATP channels; [7]", "value": "2002 ± 354", "unit": "ms"}, {"measurement": "τon", "setting": "KATP channels; [7]", "value": "1244 ± 462", "unit": "ms"}, {"measurement": "X-Rhod1-loaded cells responding with Ca^2+ rises", "setting": "human islets", "value": "~62", "unit": "%"}, {"measurement": "ΔR/R0 (decrease in FRET)", "setting": "Epac2A", "value": 0.064, "unit": "AU"}, {"measurement": "insulin secreted following illumination", "setting": "isolated murine islets; 50 µM JB253, 5 mM glucose, 405 nm or 485 nm, 30 min", "value": "4-8 fold"}, {"measurement": "insulin release in the dark versus control (5 mM glucose)", "setting": "isolated murine islets; 50 µM JB253, dark, 30 min", "value": "similar"}, {"measurement": "stimulation of insulin secretion compared with glimepiride", "setting": "isolated murine islets; 485 nm light, JB253 50 µM, glimepiride 50 µM", "value": "equipotent to glimepiride"}]}]}
